{
  "source": "patent US8653023B1",
  "about": "“Dual beneficial effect of dopamine enhancing and neuroprotective actions of PKC delta inhibitors for treatment of Parkinson's disease” (Iowa State University Research Foundation, Inc., priority 2006, dated 2014)",
  "key": {"[1]": {"tested_on": "MPTP-treated C57 black mice", "test": "TH+ neuron count in substantia nigra pars compacta of MPTP mice (stereology)", "format": "in vivo", "experimental": "Six to 8-week-old […] mice weighing 30 g were housed in standard conditions: constant temperature (22±1° C.), humidity (relative, 30%) and a 12-h light/dark cycle, and were allowed free access to food and water. The animals and protocol procedures were approved and supervised by the Committee on Animal Care (COAC) at the Iowa State University. Rottlerin was dissolved in 1% dimethyl sulfoxide (DMSO) and was administered intraperitoneally at various doses. An equal volume of DMSO was given to controls. Rottlerin and DMSO administrations were started 24 h before the injections of the MPTP and continued for 5 days in the MPTP model. In the chronic regimens of MPTP administration, MPTP in phosphate-buffered saline (PBS) was injected intraperitoneally at doses of 30 mg/kg, once a day. Mice were sacrificed 2 days after the MPTP injections, and the striata were dissected for catecholamine analysis. Additionally, rottlerin alone (0.3-20 mg/kg) was administered via intraperitoneally or orally and then brain tissues were subjected to neurochemical analyses (FIG. 8). The mesencephalons were fixed in 4% paraformaldehyde for 5 days for tyrosine hydroxylase (TH) immunostaining.\nBrains removed following cervical dislocation were post-fixed in paraformaldehyde and used for TH immunolabelling and stereological studies. Fixed brains were cut into 30-μm sections and collected in cryoprotectant. Sections were rinsed in PBS at room temperature before immunostaining, then incubated with a anti-TH antibody as described (Thiruchelvam, McCormack et al. 2003; Thiruchelvam, Powers et al. 2004). The total number of TH^+ and TH Nissl-stained neurons in the SNpc were counted using the optical fractionator and previously described counting criteria (Thiruchelvam, McCormack et al. 2003; Thiruchelvam, Powers et al. 2004). After delineation of the region at low magnification (4× objective), every fourth section from the entire substantia nigra was sampled at higher magnification (100× objective) using StereoImager (Microbrightfield, Vt.)."}, "PKCδ [2]": {"tested_on": "PKCδ", "details": "pretreatment, dose-dependent; cited from earlier work"}, "SRC kinase": {"target": "SRC kinase (Homo sapiens, UniProt P12931)", "sequence (P12931 whole entry)": "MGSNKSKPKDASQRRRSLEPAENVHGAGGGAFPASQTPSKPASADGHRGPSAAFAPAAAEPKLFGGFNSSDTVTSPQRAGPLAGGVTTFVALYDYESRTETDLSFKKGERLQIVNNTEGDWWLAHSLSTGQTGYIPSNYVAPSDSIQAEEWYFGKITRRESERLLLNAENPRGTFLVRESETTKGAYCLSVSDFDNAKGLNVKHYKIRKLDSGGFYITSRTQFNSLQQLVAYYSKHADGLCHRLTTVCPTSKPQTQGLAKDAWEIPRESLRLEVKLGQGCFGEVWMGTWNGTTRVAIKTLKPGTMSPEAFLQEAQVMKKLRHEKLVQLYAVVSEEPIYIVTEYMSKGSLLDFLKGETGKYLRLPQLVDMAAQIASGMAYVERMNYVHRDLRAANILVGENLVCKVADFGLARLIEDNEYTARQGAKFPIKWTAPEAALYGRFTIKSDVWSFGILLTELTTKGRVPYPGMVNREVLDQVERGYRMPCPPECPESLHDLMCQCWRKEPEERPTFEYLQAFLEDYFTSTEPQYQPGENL", "details": "cited from earlier work"}, "dopaminergic N27 cells": {"tested_on": "dopaminergic N27 cells", "details": "cited from earlier work"}, "PP2A": {"tested_on": "PP2A", "test": "PP2A phosphatase activity in N27 cells (Serine/Threonine phosphatase assay kit)", "format": "cell-based, rat", "details": "rottlerin vs DMSO, PKCδ-DN vs LacZ", "experimental": "To determine PP2A phosphatase activity, we used the Serine/Threonine phosphatase assay kit from Promega. Briefly, N27 cells and substantia nigral tissue from mouse brain were homogenized in lysis buffer (25 mM Tris-HCl, 10 mM β-mercaptoethanol, 2 mM EDTA, protease inhibitor) supplied with the kit. After centrifugation, the supernatants were used for the assay. PP2A activity was determined by measuring the amount of free phosphate generated in a reaction by measuring the absorbance of a molybdate:malachite green: phosphate complex at 600 nm using the Spectramax plate reader (Molecular Devices). The effective range for the detection of phosphate released in this assay is 100-4,000 pmol of phosphate."}, "macrophages": {"tested_on": "macrophages", "details": "pretreatment, cited from earlier work"}, "N27 cells": {"tested_on": "N27 cells", "test": "Cellular DA and DOPAC levels in N27 cells (HPLC-EC)", "format": "cell-based, rat", "details": "N27 cells; rottlerin vs vehicle, PKCδ-DN vs LacZ", "experimental": "(§1) PC12 cells, differentiated N27 dopaminergic cells and primary mesencephalic neurons were exposed to 1-10 μM rottlerin for the duration of the experiment. DMSO (0.01%) was used as vehicle control. PKCδ-DN- and Lac Z-expressing N27 cells were only treated with 0.01% DMSO. […] Untreated or vehicle treated cells were used as control samples.\nDA and DOPAC levels in PC12, N27 cells and in brain striatal tissues were determined by high-performance liquid chromatography with electrochemical detection (HPLC-EC); samples were prepared as described previously (Kitazawa et al., 2001). The DA and DOPAC levels were measured as pg/mg protein and expressed as percent of control."}, "PKCδ [3]": {"target": "PKCδ (Homo sapiens, UniProt Q05655)", "sequence (Q05655 whole entry)": "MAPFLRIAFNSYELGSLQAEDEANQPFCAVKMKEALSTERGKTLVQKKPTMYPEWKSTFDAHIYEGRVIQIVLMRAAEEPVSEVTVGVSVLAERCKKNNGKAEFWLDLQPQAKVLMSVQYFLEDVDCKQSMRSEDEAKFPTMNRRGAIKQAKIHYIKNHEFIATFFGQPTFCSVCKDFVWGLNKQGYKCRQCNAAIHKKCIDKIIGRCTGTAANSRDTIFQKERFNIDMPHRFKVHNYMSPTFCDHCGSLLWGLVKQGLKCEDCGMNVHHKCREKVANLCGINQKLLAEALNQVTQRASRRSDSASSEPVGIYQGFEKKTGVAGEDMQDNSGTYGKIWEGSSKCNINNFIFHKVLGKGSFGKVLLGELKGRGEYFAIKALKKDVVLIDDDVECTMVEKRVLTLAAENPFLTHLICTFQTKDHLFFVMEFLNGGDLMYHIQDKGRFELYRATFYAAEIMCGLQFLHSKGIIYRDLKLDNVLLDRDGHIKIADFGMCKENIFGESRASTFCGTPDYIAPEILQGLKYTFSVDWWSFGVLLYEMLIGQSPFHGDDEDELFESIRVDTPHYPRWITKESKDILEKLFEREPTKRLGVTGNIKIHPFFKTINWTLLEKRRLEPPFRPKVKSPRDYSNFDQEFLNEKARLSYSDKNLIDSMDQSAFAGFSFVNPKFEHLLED", "details": "cited from earlier work"}, "CAM kinase III": {"target": "CAM kinase III (Homo sapiens, UniProt O00418)", "sequence (O00418 whole entry)": "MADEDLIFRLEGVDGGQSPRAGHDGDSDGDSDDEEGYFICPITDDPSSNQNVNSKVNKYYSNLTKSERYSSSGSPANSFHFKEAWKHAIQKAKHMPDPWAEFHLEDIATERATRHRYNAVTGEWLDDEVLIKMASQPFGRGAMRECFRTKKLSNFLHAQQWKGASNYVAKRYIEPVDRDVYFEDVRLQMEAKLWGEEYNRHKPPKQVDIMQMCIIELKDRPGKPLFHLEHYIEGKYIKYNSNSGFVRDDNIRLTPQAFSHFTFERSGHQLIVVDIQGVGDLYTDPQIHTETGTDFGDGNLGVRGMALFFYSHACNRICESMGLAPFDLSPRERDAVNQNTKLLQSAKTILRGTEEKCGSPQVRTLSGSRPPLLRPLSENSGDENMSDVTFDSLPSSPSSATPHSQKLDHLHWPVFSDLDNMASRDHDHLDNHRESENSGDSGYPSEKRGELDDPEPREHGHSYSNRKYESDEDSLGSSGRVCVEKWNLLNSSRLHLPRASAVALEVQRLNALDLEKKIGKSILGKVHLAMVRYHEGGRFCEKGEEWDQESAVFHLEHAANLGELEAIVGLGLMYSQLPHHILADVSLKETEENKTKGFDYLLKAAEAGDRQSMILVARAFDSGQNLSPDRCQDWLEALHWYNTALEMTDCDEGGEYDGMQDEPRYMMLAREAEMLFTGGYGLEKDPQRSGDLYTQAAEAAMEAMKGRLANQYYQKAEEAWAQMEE", "details": "cited from earlier work"}, "casein kinase II": {"tested_on": "casein kinase II", "details": "cited from earlier work"}, "[4]": {"tested_on": "tyrosine hydroxylase (TH)", "test": "TH phosphorylation in N27 cells (Western blot, immunofluorescence)", "format": "cell-based, rat", "details": "N27 cells", "experimental": "as §1\nCell and brain lysates containing equal amounts of protein were loaded in each lane and separated on a 10-12% SDS-PAGE gel as described previously (Kaul et al., 2003). After the separation, proteins were transferred to nitrocellulose membrane, and nonspecific binding sites were blocked by treating with 5% nonfat dry milk powder. The membranes were then treated with primary antibodies directed against PKCδ (rabbit polyclonal or mouse monoclonal, 1:2000 dilution), TH (rabbit polyclonal or mouse monoclonal, 1:1000), phospho TH-ser40 (rabbit polyclonal, 1:1000), phospho TH-ser31 TH (rabbit polyclonal, 1:1000), or PP2A (mouse monoclonal, 1:1000). The primary antibody treatments were followed by treatment with secondary HRP-conjugated anti-rabbit or anti-mouse IgG (1:2000) for 1 hr at RT. Secondary antibody-bound proteins were detected using Amersham's ECL chemiluminescence kit. To confirm equal protein loading, blots were reprobed with a β-actin antibody (1:5000 dilution). Western blot images were captured with a Kodak 2000 MM imaging system and data were analyzed using 1D Kodak imaging analysis software.\nImmunostaining of PKCδ, TH, Ser40 P-TH and Ser31 P-TH was performed in PC12, N27 and primary mesencephalic neurons. Cells were grown on poly-L-Lysine-coated glass cover slips. After treatment, the cells were fixed with 4% paraformaldehyde and processed for immunohistochemical staining. First, non-specific sites were blocked with 5% normal goat serum containing 0.4% BSA and 0.2% Triton-X 100 in PBS for 20 min. Cells were then incubated with antibodies directed against PKCδ (1:500 dilution), TH (1:500 dilution), and P-THSer40 (1:500 dilution) overnight at 4° C. followed by incubation with either Alexa 488-conjugated (green, 1:1000) or Cy3-conjugated (red, 1:1000) secondary antibody for 1 hr at RT. Secondary antibody treatments were followed by incubation with Hoechst 33342 (10 μg/ml) for 3 min at room temperature to stain the nucleus. Then the coverslips containing stained cells were washed with PBS, mounted on a slide, and viewed under a Nikon inverted fluorescence microscope (Model TE-2000U); images were captured with a SPOT digital camera (Diagnostic Instruments, Sterling Heights, Mich.)."}, "cells": {"tested_on": "cells", "details": "cited from earlier work"}},
  "note": "Read-outs that look alike come from different tables or passages of the source.",
  "data": [
    {"smiles": "CC(=O)c1c(O)c(C)c(O)c(Cc2c(O)c3c(c(C(=O)/C=C/c4ccccc4)c2O)OC(C)(C)C=C3)c1O", "note": "[rottlerin]", "values": [
      {"measurement": "protective effect against SNpc cell loss", "setting": "[1]; cotreatment with 20 mg/kg rottlerin", "result": 37, "unit": "%"},
      {"measurement": "cell loss in SNpc", "setting": "[1]; cotreatment with 20 mg/kg rottlerin and MPTP 30 mg/kg", "result": 13, "unit": "%"},
      {"measurement": "MMT induced accumulation of PKCδ cleavage product and increased kinase activity", "setting": "PKCδ [2]", "result": "prevented"},
      {"measurement": "inhibition", "setting": "SRC kinase", "result": "inactive"},
      {"measurement": "H2O2 and MPP+-induced apoptotic cell death (genistein: also PKCδ cleavage, kinase activation)", "setting": "dopaminergic N27 cells", "result": "dramatically inhibited"},
      {"measurement": "reduction of PP2A activity", "setting": "PP2A", "result": 31, "unit": "%"},
      {"measurement": "suppression of UV-B-induced DNA fragmentation", "setting": "macrophages; 1 μM", "result": "approximately 30%"},
      {"measurement": "suppression of UV-B-induced DNA fragmentation", "setting": "macrophages; 10 μM", "result": "~50", "unit": "%"},
      {"measurement": "DA level", "setting": "N27 cells", "result": "2748±208", "unit": "pg/μg protein"},
      {"measurement": "DOPAC levels", "setting": "N27 cells", "result": "2564±848.19", "unit": "pg/μg protein"},
      {"measurement": "increase in DA level", "setting": "N27 cells", "result": 4, "unit": "fold"},
      {"measurement": "increase in DOPAC levels", "setting": "N27 cells", "result": 4, "unit": "fold"},
      {"measurement": "IC50", "setting": "PKCδ [3]", "result": "3 to 6", "unit": "µM"},
      {"measurement": "inhibiting concentration", "setting": "CAM kinase III", "result": "3 to 6", "unit": "µM"},
      {"measurement": "inhibition", "setting": "casein kinase II", "result": "weak inhibitor"},
      {"measurement": "level of total TH", "setting": "[4]", "result": "unaltered"},
      {"measurement": "asbestos-induced apoptosis", "setting": "cells", "result": "inhibited"}
    ]}
  ]
}
